Reference: patent publication US8940911B2, “Squarylated lactones inhibitors for bacterial biofilm formation” (Syracuse University, priority 2012, dated 2015)

Tests used:
E. coli RP437 [1] = assay: Growth studies (OD600) of planktonic E. coli; assay type: cell-based, Escherichia coli; conditions: for toxicity / growth inhibition of E. coli (in words): OD600 over 24 h, 1-300 μM as stated in the sentence
Procedure: The toxicity of the SHLs and BF8 at a range of concentrations (1, 10, 25, 50, 100, 200 and 300 μM) was evaluated against E. coli RP437 to determine whether these small molecules elicit their inhibition effect through a toxic mechanism. […] The effect induced by SHLs at 200 μM, the inhibitory concentration at which maximum biofilm inhibition occurs was interesting to observe.
The toxicity profile of BF8 48 would in turn allow a comparison to the library of SHLs. Parallel growth studies using BF8 48 and vinyl-SHL 3 treated and untreated control cultures in 96-well plates were performed. Inhibitor concentrations used during growth studies ranged from […]-300 μM.
An overnight culture of E. coli RP437 grown in LB media (OD600 of 1.0) containing streptomycin (10 μg/mL) was subsequently sub-cultured to an OD600 of 0.04 (1:100 dilution with LB media). To each well in the solvent resistant polypropylene or polystyrene-based 96-well microtiter plates were added varying concentrations of the synthetic molecules respectively (1, 10, 25, 50, 100, 200 and 300 μM). Further, to each of the wells containing the known concentrations of synthetic molecules was added 200 μL of the sub-cultured bacteria and the contents in each well were gently mixed. Control wells comprised of untreated bacterial culture (four replicates) and the LB media (four replicates). The microtiter plates were then covered and allowed to incubate at 37° C. for 24 hours with shaking at 200 rpm. The OD600 values in each well was measured at 0, 2, 4, 6, 8, 12, 24 h after inoculation using Biotek ELx800 absorbance plate reader using Gen5™ data analysis software. For each synthetic compound, the growth experiments were repeated twice and each of the concentrations was tested over four replicates.

E. coli RP437 [2] = assay: Static biofilm inhibition assay (crystal violet, 96-well plate); assay type: cell-based, Escherichia coli
From the text: A primary objective was to test the ability of SHLs to inhibit biofilm formation against E. coli RP437. […] Viable controls were required that would allow us to measure and compare the activity of SHLs against known biofilm inhibitors and naturally occurring AI-1 signal molecules. […] The activity of this class of molecule is presumably similar or even marginally higher than that of brominated furanone (BF8 48) (56%).
For the present invention, the E. coli RP437 biofilms were allowed to develop in a 96-well plate in the absence or presence of SHLs. After 24 hours, the planktonic bacteria and remaining media were removed and the crystal violet was introduced in the wells. The bacterial biofilm being formed at the air/liquid interface on the inside wall of the well is stained readily by crystal violet. After removing the excess crystal violet and repeatedly washing the wells with water, followed by ethanol solubilization of the dye, allows quantification of the amount of biofilm by spectrophotometry (OD600). […] We believe that the observed biofilm inhibition activity cannot be directly attributed to any predominant structural feature inherent in the SHLs. Rather, the small deviations in the structures of the SHLs and their effect on biofilm formation could be a result of the nature of non-covalent forces that arise during SHLs presumed binding within the receptor active site.
An overnight culture of E. coli RP437 grown in LB media (OD600 of 1.0) containing streptomycin (10 μg/mL) was subsequently sub-cultured to an OD600 of 0.04 (1:100 dilution with LB media). To each well in the solvent resistant polypropylene or polystyrene-based 96-well microtiter plates were added 200 μL of the sub-cultured bacteria respectively. To each of the wells containing the bacterial cultures varying concentrations of the synthetic molecules was added and the contents in each well were gently mixed. Control wells comprised of untreated bacterial culture (four replicates) and the LB media (four replicates). The microtiter plates were then covered and wrapped in a Saran wrap and allowed to incubate at 37° C. for 24 hours without shaking. After that time, the microbial medium in each well was discarded and the remaining biofilm that was formed during incubation was stained with 225 μL of a 0.1% crystal violet solution and allowed to incubate at room temperature for 30 minutes. After the incubation period, the crystal violet was discarded and the wells were gently washed twice with water (230-250 μL) and allowed to air dry for 15-20 minutes. For the purpose of solubilizing the remaining crystal violet that had stained the biofilm present in the interior of the 96-well plates, a 250 μL solution of 95% ethanol was used. After the addition of 95% ethanol, the contents of each well were mixed thoroughly and allowed to sit for 15-20 minutes. Finally, the biofilm formed was quantified by transferring 100 μL of the ethanol solution into a fresh polystyrene microtiter dish that was subsequently read by an absorbance plate reader (A600). After elimination of background absorbance, the percentage inhibition was calculated by dividing the amount of absorbed crystal violet in wells that contained the synthetic compound by the amount of absorbed crystal violet in wells that contained bacteria only (control). Biofilm assays for each synthetic compound were repeated two to three times and each concentration considered for inhibition studies were tested over four replicates.

[3] = E. coli RP437, 200 μM, 24 h, crystal violet

SMILES: CC1=C(Br)/C(=C/Br)OC1=O [BF8 48, reference compound]
- toxicity / growth inhibition of E. coli (in words) (E. coli RP437 [1]): marked attenuation of E. coli growth
- inhibition of biofilm formation (E. coli RP437 [2]; [3]): 56%

SMILES: CCCCOc1c(NC2CCCC2)c(=O)c1=O [butoxy-SCPA 46]
- toxicity / growth inhibition of E. coli (in words) (E. coli RP437 [1]): no inhibition of E. coli growth up to 300 μM
- inhibition of biofilm formation (E. coli RP437 [2]; [3]): 42%

SMILES: C=Cc1c(NC2CCOC2=O)c(=O)c1=O (stereo not drawn) [vinyl-SHL 3]
- E. coli growth relative to untreated sample (E. coli RP437 [1]; 200 μM, at 4 h, OD600): 77%
- toxicity / growth inhibition of E. coli (in words) (E. coli RP437 [1]): less toxicity compared to BF8 48
- toxicity / growth inhibition of E. coli (in words) (E. coli RP437 [1]; listed as Vinyl-SHL 3): after 8 h, E. coli RP437 growth reverts back normally
- biofilm inhibition (in words) (E. coli RP437 [2]; [3]): greatest inhibition of biofilm
- biofilm inhibition values used in the ratio 26/57×100 (E. coli RP437 [2]; E. coli RP437, unit not given): 57
